Patent US9212168B2 (priority 2011, dated 2015)

How the values were obtained:
HCV genotype 1b replicon = HCV genotype 1b replicon assay (Renilla luciferase readout); type: cell-based, hepatitis C virus; details: for Genotype 1b: HCV genotype 1b replicon; for EC50: Hepatitis C virus, read-out: Genotype 1b
How it was run: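 Reported as pEC50 derived from a 4-parameter fit of Renilla luciferase activity against concentration. Replicon cells (APC144, Huh7 background) were exposed to compound for 48 h in G418-free medium with final 0.5% DMSO, after seeding at 10,000 cells/well and 4 h adherence.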

HCV genotype 1a replicon = HCV genotype 1a replicon assay (NS3 protease activity readout); type: cell-based, hepatitis C virus; details: for Genotype 1a: HCV genotype 1a replicon; for EC50: Hepatitis C virus, read-out: Genotype 1a, HCV genotype 1a replicon
How it was run: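 EC50 values came from a 4-parameter robust fit of fluorescence (ex 340, em 509 nm) produced by NS3-specific protease in lysates, assayed with 15 μM FRET substrate for 20 min at 37° C, after 48 or 72 hours of compound exposure (0.5% DMSO) of Huh7.5-derived APC89 genotype 1a replicon cells.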

CNC(=O)N1CCC[C@@H]1C(=O)N1C[C@@H](C)N(c2ccc(NC(=O)c3ccc(-c4ccc(-c5c[nH]c([C@@H]6C[C@H](C)CN6C(=O)[C@@H](NC(=O)OC)C(C)C)n5)cc4)c(OC(F)(F)F)c3)cn2)C[C@@H]1C [Example 4-19]
Genotype 1b (HCV genotype 1b replicon): D (D represents pEC50>10 (EC50<0.1 nM)) | Genotype 1a (HCV genotype 1a replicon): D (D represents pEC50>10 (EC50<0.1 nM))

C[C@H]1C[C@@H](c2nc(-c3ccc(-c4cc(Cl)c(NC(=O)c5ccc(N6CCN(C(=O)C(C)(C)C)C[C@H]6C)nc5)cc4OC(F)(F)F)cc3)c[nH]2)N(C(=O)[C@@H](c2ccccc2)N2CCCCC2)C1 [Example 13-1]
EC50 (HCV genotype 1b replicon): < 0.1 nM | EC50 (HCV genotype 1a replicon): < 0.1 nM

CNC(=O)N1CCC[C@@]1(C)C(=O)N1CCN(c2ccc(NC(=O)c3ccc(-c4ccc(-c5c[nH]c([C@@H]6C[C@H](C)CN6C(=O)[C@@H](NC(=O)OC)C(C)C)n5)cc4)c(OC(F)(F)F)c3)cn2)[C@H](C)C1 [Example 4-6]
Genotype 1b (HCV genotype 1b replicon): D (D represents pEC50>10 (EC50<0.1 nM)) | Genotype 1a (HCV genotype 1a replicon): D (D represents pEC50>10 (EC50<0.1 nM))

COC(=O)N[C@H](C(=O)N1C[C@@H](C)C[C@H]1c1nc(-c2ccc(-c3cc(Cl)c(NC(=O)c4ccc(N5CCN(C(=O)C67CC(CO)(C6)C7)C[C@H]5C)nc4)cc3OC(F)(F)F)cc2)c[nH]1)C(C)C [Example 12-50]
EC50 (HCV genotype 1b replicon): < 0.1 nM | EC50 (HCV genotype 1a replicon): < 0.1 nM

COC(=O)N[C@H](C(=O)N1C[C@@H](C)C[C@H]1c1nc(-c2ccc(-c3cc(Cl)c(NC(=O)c4ccc(N5CCN(C(=O)C(C)(C)CO)C[C@H]5C)nc4)cc3OC(F)(F)F)cc2)c[nH]1)C(C)(C)O [Example 13-16]
EC50 (HCV genotype 1b replicon): < 0.1 nM | EC50 (HCV genotype 1a replicon): < 0.1 nM

COC(=O)N[C@H](C(=O)N1C[C@@H](N(C)C)C[C@H]1c1nc(-c2ccc(-c3ccc(C(=O)Nc4ccc(N5CCN(C(=O)C6CC6(C)C)C[C@H]5C)nc4)cc3)cc2)c[nH]1)C(C)C (stereo partly shown) [Example 6-5]
EC50 (HCV genotype 1b replicon): < 0.1 nM | EC50 (HCV genotype 1a replicon): 0.1 to 1 nM

COC(=O)N[C@H](C(=O)N1C[C@@H](C)C[C@H]1c1nc(-c2ccc(-c3cc(F)c(NC(=O)c4ccc(N5CCN(C(=O)C(C)(C)C)C[C@H]5C)nc4)cc3OC(F)(F)F)cc2)c[nH]1)[C@H](C)O [Example 13-20]
EC50 (HCV genotype 1b replicon): < 0.1 nM | EC50 (HCV genotype 1a replicon): < 0.1 nM

COC[C@H]1CN(c2ccc(C(=O)Nc3cc(OC(F)(F)F)c(-c4ccc(-c5c[nH]c([C@@H]6C[C@H](C)CN6C(=O)[C@@H](NC(=O)OC)C6CCOCC6)n5)cc4)cc3Cl)cn2)CCN1C(=O)C(C)(C)C [Example 20-7]
Genotype 1b (HCV genotype 1b replicon): D (D represents pEC50>10 (EC50<0.1 nM)) | Genotype 1a (HCV genotype 1a replicon): D (D represents pEC50>10 (EC50<0.1 nM))

COC(=O)N[C@H](C(=O)N1C[C@@H](OC)C[C@H]1c1nc(-c2ccc(-c3cc(Cl)c(NC(=O)c4ccc(N5C[C@H](C)N(C(=O)[C@]6(C)CCCN6C(=O)CN(C)C)C[C@H]5C)nc4)cc3OC(F)(F)F)cc2)c[nH]1)C1CCOCC1 [Example 28-19]
Genotype 1b (HCV genotype 1b replicon): D (D represents pEC50>10 (EC50<0.1 nM)) | Genotype 1a (HCV genotype 1a replicon): C (C represents pEC50 between and 9 and about 10, (EC50 between 1 nM and 0.1 nM))

COC(=O)N[C@H](C(=O)N1C[C@@H](OC)C[C@H]1c1nc(-c2ccc(-c3cc(F)c(NC(=O)c4ccc(N5CCN(C(=O)C(C)(C)C)C[C@H]5C)nc4)cc3OC(F)(F)F)cc2)c[nH]1)C(C)C [Example 27-3]
Genotype 1b (HCV genotype 1b replicon): D (D represents pEC50>10 (EC50<0.1 nM)) | Genotype 1a (HCV genotype 1a replicon): D (D represents pEC50>10 (EC50<0.1 nM))

CNC(=O)N1CCN(c2ccc(C(=O)Nc3cc(C(F)(F)F)c(-c4ccc(-c5c[nH]c([C@@H]6C[C@H](C)CN6C(=O)[C@@H](NC(=O)OC)C(C)C)n5)cc4)cc3Cl)cn2)[C@H](C)C1 [Example 1-30]
Genotype 1b (HCV genotype 1b replicon): D (D represents pEC50>10 (EC50<0.1 nM)) | Genotype 1a (HCV genotype 1a replicon): D (D represents pEC50>10 (EC50<0.1 nM))

COC(=O)NC(C(=O)N1CC(OC)CC1c1nc(-c2ccc(-c3ccc(NC(=O)c4ccc(N5CCN(C(=O)C(C)(C)CO)CC5C)nc4)cc3OC(F)(F)F)cc2)c[nH]1)C(C)O (stereo not shown) [Example 16-15]
Genotype 1b (HCV genotype 1b replicon): D (D represents pEC50>10 (EC50<0.1 nM)) | Genotype 1a (HCV genotype 1a replicon): C (C represents pEC50 between and 9 and about 10, (EC50 between 1 nM and 0.1 nM))

COC(=O)N[C@H](C(=O)N1[C@@H]2C[C@@H]2C[C@H]1c1nc(-c2ccc(-c3cc(Cl)c(NC(=O)c4ccc(N5CCN(C(=O)C(C)(C)C)C[C@H]5C)nc4)cc3OC(F)(F)F)cc2)c[nH]1)C(C)C [Example 8-2]
EC50 (HCV genotype 1b replicon): < 0.1 nM | EC50 (HCV genotype 1a replicon): < 0.1 nM

COC(=O)N[C@H](C(=O)N1C[C@@H](C)C[C@H]1c1nc(-c2ccc(-c3ccc(C(=O)Nc4ccc(N5C[C@H](C)N(C(=O)C6CC6)C[C@H]5C)nc4)cc3OC(F)(F)F)cc2)c(Cl)[nH]1)C(C)C [Example 4-11]
Genotype 1b (HCV genotype 1b replicon): D (D represents pEC50>10 (EC50<0.1 nM)) | Genotype 1a (HCV genotype 1a replicon): D (D represents pEC50>10 (EC50<0.1 nM))

COC(=O)N[C@H](C(=O)N1C[C@@H](C)C[C@H]1c1nc(-c2ccc(-c3ccc(C(=O)Nc4ccc(N5CCN(C(=O)[C@H]6CC6(C)C)C[C@H]5C)nc4)cc3OC(F)(F)F)cc2)c[nH]1)C1CCOCC1 [Example 22-4]
Genotype 1b (HCV genotype 1b replicon): D (D represents pEC50>10 (EC50<0.1 nM)) | Genotype 1a (HCV genotype 1a replicon): D (D represents pEC50>10 (EC50<0.1 nM))

COC(=O)N[C@H](C(=O)N1C[C@@H](OC)C[C@H]1c1nc(-c2ccc(-c3cc(Cl)c(NC(=O)c4ccc(N5CCN(C(=O)C(C)(C)CO)C[C@H]5C)nc4)cc3OC(F)(F)F)cc2)c(CO)[nH]1)C1CCOCC1 [Example 28-16]
Genotype 1b (HCV genotype 1b replicon): D (D represents pEC50>10 (EC50<0.1 nM)) | Genotype 1a (HCV genotype 1a replicon): D (D represents pEC50>10 (EC50<0.1 nM))

COC(=O)N[C@H](C(=O)N1C[C@@H](C)C[C@H]1c1nc(-c2ccc(-c3cc(Cl)c(NC(=O)c4ccc(N5CCN(C(=O)c6c[nH]cn6)C[C@H]5C)nc4)cc3OC(F)(F)F)cc2)c[nH]1)C(C)C [Example 1-18]
Genotype 1b (HCV genotype 1b replicon): D (D represents pEC50>10 (EC50<0.1 nM)) | Genotype 1a (HCV genotype 1a replicon): D (D represents pEC50>10 (EC50<0.1 nM))

COC(=O)N[C@H](C(=O)N1C[C@@H](OC)C[C@H]1c1nc(-c2ccc(-c3cc(Cl)c(NC(=O)c4ccc(N5CCN(C(=O)[C@H]6CC6(C)C)C[C@H]5C)nc4)cc3OC(F)(F)F)cc2)c[nH]1)C(C)C [Example 27-1]
Genotype 1b (HCV genotype 1b replicon): D (D represents pEC50>10 (EC50<0.1 nM)) | Genotype 1a (HCV genotype 1a replicon): D (D represents pEC50>10 (EC50<0.1 nM))

COCC(=O)N1CCC[C@@]1(C)C(=O)N1C[C@@H](C)N(c2ccc(C(=O)Nc3cc(OC(F)(F)F)c(-c4ccc(-c5c[nH]c([C@@H]6C[C@H](OC)CN6C(=O)[C@@H](NC(=O)OC)C6CCOCC6)n5)cc4)cc3Cl)cn2)C[C@@H]1C [Example 28-17]
Genotype 1b (HCV genotype 1b replicon): D (D represents pEC50>10 (EC50<0.1 nM)) | Genotype 1a (HCV genotype 1a replicon): D (D represents pEC50>10 (EC50<0.1 nM))

COC(=O)N[C@H](C(=O)N1C[C@@H](C)C[C@H]1c1nc(-c2ccc(-c3cc(F)c(NC(=O)c4ccc(N5C[C@H](C)N(C(=O)c6c[nH]cn6)C[C@H]5C)nc4)cc3OC(F)(F)F)cc2)c[nH]1)C(C)C [Example 1-14]
Genotype 1b (HCV genotype 1b replicon): D (D represents pEC50>10 (EC50<0.1 nM)) | Genotype 1a (HCV genotype 1a replicon): D (D represents pEC50>10 (EC50<0.1 nM))

COC(=O)N[C@H](C(=O)N1C[C@@H](C)C[C@H]1c1nc(-c2ccc(-c3cc(Cl)c(NC(=O)c4ccc(N5CCN(C(=O)C6CC(O)C6)C[C@H]5C)nc4)cc3OC(F)(F)F)cc2)c[nH]1)C(C)C (stereo partly shown) [Example 12-47]
EC50 (HCV genotype 1b replicon): < 0.1 nM | EC50 (HCV genotype 1a replicon): < 0.1 nM

COC(=O)N[C@H](C(=O)N1C[C@@H](C)C[C@H]1c1nc(-c2ccc(-c3cc(F)c(NC(=O)c4ccc(N5CCN(C(=O)C(C)(C)C)C[C@H]5C)nc4)cc3OC(F)(F)F)cc2)c[nH]1)C1CCOCC1 [Example 13-22]
EC50 (HCV genotype 1b replicon): < 0.1 nM | EC50 (HCV genotype 1a replicon): < 0.1 nM

COC(=O)N[C@H](C(=O)N1C[C@@H](O)C[C@H]1c1nc(-c2ccc(-c3cc(F)c(NC(=O)c4ccc(N5CCN(C(=O)C(C)(C)CO)C[C@H]5C)nc4)cc3OC(F)(F)F)cc2)c[nH]1)C(C)C [Example 26-7]
Genotype 1b (HCV genotype 1b replicon): D (D represents pEC50>10 (EC50<0.1 nM)) | Genotype 1a (HCV genotype 1a replicon): C (C represents pEC50 between and 9 and about 10, (EC50 between 1 nM and 0.1 nM))

COC(=O)N[C@H](C(=O)N1C[C@@H](C)C[C@H]1c1nc(-c2ccc(-c3cc(F)c(NC(=O)c4ccc(N5CCN(C(=O)[C@H]6CC6(C)C)C[C@H]5C)nc4)cc3C(F)(F)F)cc2)c[nH]1)C(C)C [Example 1-5]
Genotype 1b (HCV genotype 1b replicon): D (D represents pEC50>10 (EC50<0.1 nM)) | Genotype 1a (HCV genotype 1a replicon): D (D represents pEC50>10 (EC50<0.1 nM))

COC(=O)N[C@H](C(=O)N1[C@@H](C)CC[C@H]1c1nc(-c2ccc(-c3cc(Cl)c(NC(=O)c4ccc(N5CCN(C(=O)C(C)(C)C)C[C@H]5C)nc4)cc3C(F)(F)F)cc2)c[nH]1)C(C)C [Example 17-2]
Genotype 1b (HCV genotype 1b replicon): D (D represents pEC50>10 (EC50<0.1 nM)) | Genotype 1a (HCV genotype 1a replicon): D (D represents pEC50>10 (EC50<0.1 nM))

COC(=O)N[C@H](C(=O)N1C[C@@H](C)C[C@H]1c1nc(-c2ccc(-c3ccc(C(=O)Nc4ccc(N5CCN(C(=O)C(C)(C)C)C[C@H]5C)nc4)cc3)cc2)c(Cl)[nH]1)C1CCOCC1 [Example 22-10]
Genotype 1b (HCV genotype 1b replicon): D (D represents pEC50>10 (EC50<0.1 nM)) | Genotype 1a (HCV genotype 1a replicon): D (D represents pEC50>10 (EC50<0.1 nM))
